According to patent US20230285481A1, “TREATMENT OF CANCER HARBORING MUTATIONS IN THE TP53 GENE AND/OR POST-TRANSLATIONAL MODIFICATIONS IN THE P53 PROTEIN WITH PARVOVIRUSES” (UNIVERSIDAD AUTÓNOMA DE MADRID, priority 2018, published 2023):

How the values were obtained:
Format in all cases: cell-based, human
[1] = tested on: U87-MG glioblastoma cells; test: MVM infection markers (NS1, Pp53-S15, vDNA) by IF-confocal, Southern and western blot in U87-MG
Description: Immunofluorescence analyses were performed on neurospheres of hGSCs (human glioblastoma stem cells) and established adherent cell lines as follows: • Neurosphere staining. The cell spheres were fixed for 30 minutes with paraformaldehyde (PFA) 4%, then permeabilized for 10 minutes at room temperature with 0.1% Triton X-100 (Merck) in PBS, and blocked by incubating 20 minutes with 0.1% Triton X-100 and 10% fetal bovine serum (Sigma) in PBS. Neurospheres were incubated in the same buffer with the primary antibodies indicated in the figures for 1 h at 37° C., and finished by four five-minute PBS washes. Then neurospheres were incubated with the secondary antibodies at appropriate concentrations in the same buffer and conditions, and finally stained with DAPI for half an hour and mounted embedding at 37° C. in 0.8% agarose-LGT prepared in PBS. Embedded neurospheres were applied as 200 microliters drops on pre-cooled large (2×3 cm) coverslips and stored at 4° C. in the dark until confocal analysis. • Adherent cells. The cell lines were seeded on coverslips, treated as indicated in the figures and fixed for 10 minutes with 4% paraformaldehyde. Staining with antibodies was carried out essentially as described above for the neurospheres. Cells were mounted with Fluoromount G (Southern Biotech). Preparations were kept at least 16 h at room temperature in the dark before observation under a microscope. • Analysis of virus replication by FISH. This method was used to determine the degree of replication of the parvovirus MVM genome. The probe used was a mixture of three DNA oligonucleotides labeled at the 3′ terminal end with the Cy5 fluorophore, and complementary to different sequences of the MVM genome. […] The images were processed with Adobe Photoshop CS5 programs (Adobe Systems Incorporated) and ImageJ/FIJI (http://rsb.info.nih.gov/ij/) taking the same samples as a zero-signal reference without antibodies (auto-fluorescence control), or only with secondary antibodies. […]

[2] = tested on: U373-MG glioblastoma cells; test: Clonogenic analysis of cell viability (colony formation) in U373-MG; details: single agent: CisPt 1-hour treatment, or MVMp singly inoculated at two MOI
Description: Consequently, the CisPt dose effect on different MVMp life cycle parameters, and on p53 phosphorylation and functional signaling in U373-MG cells, was analyzed. For this, the U373-MG cells treated with Cis-Platinum doses (10-120 microM) for 1 hour at 37° C. were inoculated with MVMp to allow adsorption, and then of the infection was allowed to progress for 24 hours. Cells were sampled and processed for virus macromolecular markers and Pp53-S15 determinations.
We finally analyzed whether these MVM/CisPt cooperative effects impact cancer cells viability, and therefore whether they imply a therapeutic significance.

[3] = tested on: U373-MG glioblastoma cells; test: MVM infection markers (NS1, Pp53-S15, vDNA) by cytometry, IF-confocal and western blot in U373-MG
Description: In all the experiments, a minimum of 30,000 events per sample were acquired in a FACSCantoII cytometer (BD Biosciences), which were pre-selected by a region based on their size and complexity (FSC and SSC parameters, respectively) in order to exclude cellular debris and other contaminating particles. The CellQuest software (BD Biosciences) was used to acquire the events and the FlowJo software (Tree Star) was used to analyze the data. The cell cycle analysis was in accordance to [Gil-Ranedo, J., Hernando, E., Riolobos, L., Dominguez, C., Kann, M, and José M Almendral. 2015. The mammalian cell cycle regulates nuclear parvovirus capsid assembly. PlosPathogens, 11; 11 (6): e1004920]. For staining, cells were permeabilized with PBS+0.1% triton X-100 for 10 minutes at room temperature, then blocked with the same buffer supplemented with 1% FCS for 20 minutes. Cells were re-suspended in PBS (pH 7.2)+0.5% BSA and the primary antibodies indicated in the figures were added followed by 1 h stirring at 37° C. Cells were washed in PBS and the secondary antibodies were added and incubated similarly. Two further washes in PBS were made before analyzing the samples in the flow cytometer.
Immunofluorescence analyses were performed on neurospheres of hGSCs (human glioblastoma stem cells) and established adherent cell lines as follows: • Neurosphere staining. The cell spheres were fixed for 30 minutes with paraformaldehyde (PFA) 4%, then permeabilized for 10 minutes at room temperature with 0.1% Triton X-100 (Merck) in PBS, and blocked by incubating 20 minutes with 0.1% Triton X-100 and 10% fetal bovine serum (Sigma) in PBS. Neurospheres were incubated in the same buffer with the primary antibodies indicated in the figures for 1 h at 37° C., and finished by four five-minute PBS washes. Then neurospheres were incubated with the secondary antibodies at appropriate concentrations in the same buffer and conditions, and finally stained with DAPI for half an hour and mounted embedding at 37° C. in 0.8% agarose-LGT prepared in PBS. Embedded neurospheres were applied as 200 microliters drops on pre-cooled large (2×3 cm) coverslips and stored at 4° C. in the dark until confocal analysis. • Adherent cells. The cell lines were seeded on coverslips, treated as indicated in the figures and fixed for 10 minutes with 4% paraformaldehyde. Staining with antibodies was carried out essentially as described above for the neurospheres. Cells were mounted with Fluoromount G (Southern Biotech). Preparations were kept at least 16 h at room temperature in the dark before observation under a microscope. • Analysis of virus replication by FISH. This method was used to determine the degree of replication of the parvovirus MVM genome. The probe used was a mixture of three DNA oligonucleotides labeled at the 3′ terminal end with the Cy5 fluorophore, and complementary to different sequences of the MVM genome. Cells adhered and fixed in 4% paraformaldehyde were permeabilized for 10 minutes with 0.2% Triton X-100 (Merck) in PBS and equilibrated for 5 minutes at room temperature in 2×SSC (0.3 M NaCl; 30 mM Na2C6H5O7, pH 7) supplemented with 15% formamide. Hybridization was with 500 ng/ml of each oligonucleotide in FISH buffer (5×SSC, 0.5% SDS, 10% dextran sulfate, 50% formamide) for 2.5 hours at 37° C. The preparations were washed twice with 2×SSC, 15% formamide for 30 minutes. […]

| Structure (SMILES) | p53 phosphorylation at the Ser15 residue ([1]; uninfected U87-MG cells, IF-confocal) | cell viability (clonogenic assay) [2] | NS1 levels by western blot ([3]; MVMp infected U373-MG, 5 to 20 microM CisPt) | virus genome (vDNA) replication levels ([3]; MVMp infected U373-MG, IF-confocal, CisPt dose effect) | percentage of cells expressing NS1 and level of NS1 expression ([3]; MVMp infected U373MG, flow cytometry, combined treatment with single dose of CD versus simple infection) | Pp53-S15 levels ([3]; U373-MG, IF-confocal, 5-20 microM Cis-Pt, 1 hour, then MVMp 24 hours) | Pp53-S15 induction ([3]; U373MG, flow cytometry, single dose, also in treated non-infected cells) | percentage of NS1+ cells after drug pre-treatment ([1]; U87-MG treated with different Cis-Pt doses prior to MVMp infection) | MVMp genome replication (vDNA) after drug pre-treatment ([1]; U87-MG, Cis-Pt dose effect, MVMp infection) |
| --- | --- | --- | --- | --- | --- | --- | --- | --- | --- |
| O=c1[nH]cc(F)c(=O)[nH]1 [5FU, 5-fluorouracil] | substantially increased | – | – | – | – | – | – | – | – |
| N.N.[Cl][Pt][Cl] [CisPt, Cisplatin] | – | progressively decreased the viability | increasing NS1 levels | benefitted from 10 microM CisPt but not from higher doses | highest increase | significant increase | generalized Pp53-S15 induction in all cells | very significant increase | benefitted from the 10 or 20 microM Cis-Pt treatment, but not from higher doses |
